{
  "source": "patent US10420770B2",
  "about": "“Compositions and methods for treating dementia” (EIP Pharma, LLC, priority 2016, dated 2019)",
  "type_in_all_cases": "in vivo, human",
  "key": {"amyloid plaque load": {"test_system": "amyloid plaque load", "experiment": "Quantitative dynamic [11C]PiB PET amyloid scanning (RPM2-BPND), 12-week study", "conditions": "for Number of Responders/Total Number in Population, PET metric Cingulate Posterior / Number of Responders/Total Number in Population, PET metric Frontal / Number of Responders/Total Number in Population, PET metric Global / Number of Responders/Total Number in Population, PET metric Med Temp Lobe / Number of Responders/Total Number in Population, PET metric Parietal / Number of Responders/Total Number in Population, PET metric Temporal: responder = reduction of ≥7% in RPM2-BPND", "method": "Dosing started on Day 1 following completion of all baseline procedures. During the treatment period, subjects returned to the clinic on Days 14, 28, 56, and 84. […] Dynamic PET scanning with fill quantitative analysis was performed at baseline and at the end of treatment.\nTarget engagement was assessed through the use of an AD-related biomarker. The primary endpoint was based on assessment of amyloid plaque burden using quantitative dynamic PET amyloid scanning (Tolboom, N. et al. “Test-retest variability of quantitative [^11C]PIB studies in Alzheimer's disease.” Eur. J. Nucl. Med. Mol. Imaging 36(10): 1629-1638 (2009)). The method of van Berckel et al (van Berckel B N, R. Ossenkoppele, et al. “Longitudinal amyloid imaging using ^11CPiB: Methodologic considerations.” J. Nucl. Med. 5=1; 1570-1576 (2013)) was followed, in which dynamic emission scanning consists of 23 frames with progressive increases in frame duration (1·15, 3·5, 3·10, 2·30, 3·60, 2·150, 2·300, and 7·600 s) for a total scan duration of 90 min; and subsequently full quantitative data analysis of the images was performed by reference parametric mapping (RPM2) using cerebellum as reference tissue. This methodology allowed for a more reliable (i.e. less variable) assessment of brain amyloid plaque load than standard amyloid PET imaging. In addition this method of measuring amyloid burden has high scan-to-scan stability (˜2-3% test-test variability) within subjects. No placebo group was enrolled. Instead, reductions in brain amyloid plaque load of greater than 7%, which is definitively outside the range of test-test variability, were considered to be a drug effect in this study."}, "[1]": {"test_system": "brain-derived neurotrophic factor (BDNF)", "experiment": "Plasma BDNF levels by Somascan, 12-week study", "conditions": "baseline vs after 84 days; n=10 subjects", "method": "FIG. 15 depicts plasma brain-derived neurotrophic, factor (BDNF) levels at baseline and after 84 days (n=10 subjects). BDNF levels were measured by Somascan®."}, "interleukin-10 (IL-10)": {"test_system": "interleukin-10 (IL-10)", "experiment": "CSF cytokine measurement (Mesoscale Discovery), IL-10, 6-week study", "conditions": "day 41; after VX-745 reached Cmax in the plasma", "method": "Cytokine measurements of CSF samples were done to assess the balance of pro-inflammatory versus anti-inflammatory cytokines. The t-helper type 1/t-helper type 2 (TH1/TH2) multiplex cytokine (IFN-γ, IL-1β, IL-2, IL-4, IL-5, IL-8, IL-10, IL-12p70, IL-13, TNFα ) panel by Mescoscale Discovery were utilized to inform on effects on the relative balance of pro-inflammatory cytokines (e.g. IL-1β, TNFα) versus anti-inflammatory cytokines (e.g., IL-10).\nTarget engagement was assessed through the evaluation of the effect of drug treatment on CSF biomarkers. CSF was collected at 6 time-points over 24 hours at baseline (the 24 hours prior to first dose) and again at 6 time-points over 24 hours near the end of treatment on Day 40. The samples were evaluated by the Mesoscale Discovery ELISA platform for multiple cytokines ((IFN-γ, IL-1β, IL-2, IL-4, IL-5, IL-8, IL-12 protein 70, IL-13, TNFα, and CSF) and for amyloid-beta peptides (Aβ 38/40/42)."}, "[2]": {"experiment": "Safety and tolerability, 6-week Phase IIa study (Example 2)", "conditions": "6 weeks", "method": "Investigators and patients were blinded to the dosage strength. The first 3 patients were randomly assigned to receive either 40 or 125 mg twice daily, with dosing level blinded. The remaining patients (up to 7 patients) received 40 mg twice daily on an open-label basis. […] Patients were instructed to eat a meal approximately 30 minutes before dosing with VX 745 with each dose taken approximately 12 hours (+/−3 hours) apart at the same times each day throughout the study."}},
  "note": "Values joined by “and” are separate entries in the source; they are usually repeats but may differ in a detail not shown here. Equal entries are not always repeated.",
  "data": [
    {"smiles": "O=c1ncn2nc(Sc3ccc(F)cc3F)ccc2c1-c1c(Cl)cccc1Cl", "note": "[VX-745]", "values": [
      {"measurement": "subjects between 3 and 7% (% change RPM2_BPND)", "setting": "amyloid plaque load; 40 mg", "result": 2},
      {"measurement": "subjects who reached the 7% responder criterion (% change RPM2_BPND)", "setting": "amyloid plaque load; 40 mg", "result": 3},
      {"measurement": "Number of Responders/Total Number in Population, PET metric Cingulate Posterior", "setting": "amyloid plaque load; 40 mg twice daily 12 weeks", "result": "2/8"},
      {"measurement": "Number of Responders/Total Number in Population, PET metric Frontal", "setting": "amyloid plaque load; 40 mg twice daily 12 weeks", "result": "3/8"},
      {"measurement": "Number of Responders/Total Number in Population, PET metric Global", "setting": "amyloid plaque load; 40 mg twice daily 12 weeks", "result": "3/8"},
      {"measurement": "Number of Responders/Total Number in Population, PET metric Med Temp Lobe", "setting": "amyloid plaque load; 40 mg twice daily 12 weeks", "result": "4/8"},
      {"measurement": "Number of Responders/Total Number in Population, PET metric Parietal", "setting": "amyloid plaque load; 40 mg twice daily 12 weeks", "result": "3/8"},
      {"measurement": "Number of Responders/Total Number in Population, PET metric Temporal", "setting": "amyloid plaque load; 40 mg twice daily 12 weeks", "result": "2/8"},
      {"measurement": "Number of Responders/Total Number in Population, PET metric Cingulate Posterior", "setting": "amyloid plaque load; 125 mg twice daily 12 weeks", "result": "0/7"},
      {"measurement": "Number of Responders/Total Number in Population, PET metric Frontal", "setting": "amyloid plaque load; 125 mg twice daily 12 weeks", "result": "1/7"},
      {"measurement": "Number of Responders/Total Number in Population, PET metric Global", "setting": "amyloid plaque load; 125 mg twice daily 12 weeks", "result": "1/7"},
      {"measurement": "Number of Responders/Total Number in Population, PET metric Med Temp Lobe", "setting": "amyloid plaque load; 125 mg twice daily 12 weeks", "result": "2/7"},
      {"measurement": "Number of Responders/Total Number in Population, PET metric Parietal", "setting": "amyloid plaque load; 125 mg twice daily 12 weeks", "result": "0/7"},
      {"measurement": "Number of Responders/Total Number in Population, PET metric Temporal", "setting": "amyloid plaque load; 125 mg twice daily 12 weeks", "result": "1/7"},
      {"measurement": "Percentage reduction in global cortical RPM2-BPND, individual responders", "setting": "amyloid plaque load; 3 responders in the 40 mg dose group, 12 weeks", "result": "−11.6% and −11.9% and −40.5%"},
      {"measurement": "Number of Responders/Total Number in Population, PET metric Cingulate Posterior", "setting": "amyloid plaque load; All, 12 weeks", "result": "2/15"},
      {"measurement": "Number of Responders/Total Number in Population, PET metric Frontal", "setting": "amyloid plaque load; All, 12 weeks", "result": "4/15"},
      {"measurement": "Number of Responders/Total Number in Population, PET metric Global", "setting": "amyloid plaque load; All, 12 weeks", "result": "4/15"},
      {"measurement": "Number of Responders/Total Number in Population, PET metric Med Temp Lobe", "setting": "amyloid plaque load; All, 12 weeks", "result": "6/15"},
      {"measurement": "Number of Responders/Total Number in Population, PET metric Parietal", "setting": "amyloid plaque load; All, 12 weeks", "result": "3/15"},
      {"measurement": "Number of Responders/Total Number in Population, PET metric Temporal", "setting": "amyloid plaque load; All, 12 weeks", "result": "3/15"},
      {"measurement": "Percentage reduction in global cortical RPM2-BPND, individual responder", "setting": "amyloid plaque load; one responder in the 125 mg dose group, 12 weeks", "result": "−7.7", "unit": "%"},
      {"measurement": "plasma BDNF levels", "setting": "[1]", "result": "increases plasma BDNF levels"},
      {"measurement": "CSF IL-10 change from baseline", "setting": "interleukin-10 (IL-10)", "result": "decreased rapidly"},
      {"measurement": "tolerability", "setting": "[2]; 40 mg or 125 mg twice daily", "result": "well-tolerated"},
      {"measurement": "safety concerns", "setting": "[2]", "result": "No safety concerns were identified"},
      {"measurement": "safety laboratory and 12-lead ECG parameters", "setting": "[2]", "result": "no treatment-related or clinically relevant trends"},
      {"measurement": "Most common adverse events", "setting": "[2]; 9 subjects", "result": "mild dizziness, headache, and somnolence reported in 2 subjects each"}
    ]}
  ]
}
